The experiment has as its target T1, recombinant human KLK5 (Homo sapiens, UniProt Q9Y337).
T1 construct: purchased Novoprotein or R&D Systems C415 or 1108-SE
T1 sequence (Q9Y337 23-293): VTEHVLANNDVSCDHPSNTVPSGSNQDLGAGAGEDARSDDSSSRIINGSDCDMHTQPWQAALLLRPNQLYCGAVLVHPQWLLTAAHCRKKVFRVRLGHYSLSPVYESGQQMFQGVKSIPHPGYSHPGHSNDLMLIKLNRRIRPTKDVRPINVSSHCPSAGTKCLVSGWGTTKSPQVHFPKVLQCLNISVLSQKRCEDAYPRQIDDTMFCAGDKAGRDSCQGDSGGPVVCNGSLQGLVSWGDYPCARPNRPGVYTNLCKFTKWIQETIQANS
Kind of experiment: Kallikrein (KLK) 5 enzymatic assay (Boc-VPR-AMC fluorogenic substrate). The format is biochemical. As to conditions: recombinant human KLK5 0.1 μg/well, Boc-VPR-AMC 100 μM, pH 7.5, room temperature, 1% DMSO; tested a minimum of three times. The text has this: Kallikrein-5 (KLK5) is a member of the serine protease family of proteolytic enzymes, confirmed to have trypsin-like activity (Michael I P, et al. Biochemical and enzymatic characterization of human kallikrein 5 (hK5), a novel serine protease potentially involved in cancer progression (J. Biol. Chem. 2005 Apr. 15; 280 (15): 14628-35). Boc-VPR-AMC is a fluorogenic peptide substrate composed of the short peptide chain, Valine-Proline-Arginine (VPR) and the fluorophore, 7-amino-4-methylcoumarin (AMC). KLK5 is able to cleave the fluorogenic peptide substrate Boc-VPR-AMC, releasing the AMC fluorophore, which causes a fluorescent emission in proportion with the enzymatic activity of KLK5. The KLK5 enzymatic activity is monitored by measuring fluorescent emission at wavelengths of 380 nm (excitation) and 460 nm (emission).
The IC50 value of compounds against KLK5 (i.e., the concentration of the compound that inhibits 50% of the enzymatic activity) was calculated according to the procedure reported by R&D systems (Recombinant human KLK5, Catalog Number: 1108-SE), with the exception the pH of the assay was modified from 8.0 to 7.5. Specifically, recombinant human KLK5 (Novoprotein Catalog #C415 or R&D systems Catalog #1108-SE) and fluorogenic peptide Boc-VPR-AMC substrate (R&D Catalog #ES011) were each separately diluted in assay buffer (0.1 M NaH2PO4 buffer, pH 7.5). The compounds of the disclosure were dissolved in DMSO at a concentration of 10 mM. A portion of this stock solution was added to the recombinant human KLK5 solution to provide a desired concentration of the compounds and the mixture was incubated at room temperature. The reaction was initiated by the addition of the fluorogenic peptide substrate at room temperature. The final concentration of recombinant human KLK5 was 0.1 μg/well and the final concentration of the fluorogenic substrate was 100 μM (final volume of 100 μL, 1% DMSO). The assays were performed in 96 well F16 Black Maxisorp Plate (Nunc Catalog #475515). Controls included assay buffer alone and enzyme solutions to which DMSO was added. The reaction rates were measured spectrophotometrically by excitation at 380 nm and emission at 460 nm on a Biotek Synergy H1 plate reader.
The reaction rate for enzyme alone was compared to the reaction rate of enzyme in the presence of compound and the percent inhibition was calculated as shown below:
Percent Inhibition=[Rate with inhibitor/Rate without inhibitor)]×100
An IC50 indicates a compound concentration that inhibits 50% of the enzymatic activity. Compounds were tested a minimum of three times.

Molecules are shown by their SMILES. pIC50: −log10 of the molar value.

One may read the pIC50 as −log10 of the IC50, conventionally taken in molar units. As for `COc1c(-c2ccc3nn(C4CCC4)c(COc4ccccc4CC(=O)O)c3c2)ccnc1C(=N)N` [Compound 24b, 2-(2-((5-(2-carbamimidoyl-3-methoxypyridin-4-yl)-2-cyclobutyl-2H-indazol-3-yl)methoxy)phenyl)acetic acid], the pIC50 is more than 6.00.

In the case of `CC(C)n1nc(COc2ccccc2CC(=O)O)c2cc(-c3ccc4nccc(N)c4c3)ccc21` [Compound 25c, 2-(2-((5-(4-aminoquinolin-6-yl)-1-isopropyl-1H-indazol-3-yl)methoxy)phenyl)acetic acid], the pIC50 was 5.00 to 6.00.

Turning to `CC(C)n1nc(COc2ccccc2CC(=O)O)c2cc(-c3ccc4[nH]c(N)nc4c3)ccc21` [Compound 26c, 2-(2-((5-(2-amino-1H-benzo[d]imidazol-5-yl)-1-isopropyl-1H-indazol-3-yl)methoxy)phenyl)acetic acid], the pIC50 is 5.00 to 6.00.

For the compound `CC(C)n1nc(COc2ccccc2CC(=O)O)c2cc(-c3ccc4oc(N)nc4c3)ccc21` [Compound 27c, 2-(2-((5-(2-aminobenzo[d]oxazol-5-yl)-1-isopropyl-1H-indazol-3-yl)methoxy)phenyl)acetic acid], the pIC50 was less than 5.00.

As to `N=C(N)c1cccc(-c2ccc3c(c2)c(COc2ccccc2CC(=O)O)nn3C2CCC2)c1` [Compound 28d, 2-(2-((5-(3-carbamimidoylphenyl)-1-cyclobutyl-1H-indazol-3-yl)methoxy)phenyl)acetic acid], the pIC50 is more than 6.00.

Consider `CC(C)n1nc(COc2ccccc2CC(=O)O)c2cc(-c3ccc(C(=N)N)c(O)c3)ccc21` [Compound 29c, 2-(2-((5-(4-carbamimidoyl-3-hydroxyphenyl)-1-isopropyl-1H-indazol-3-yl)methoxy)phenyl)acetic acid], for which the pIC50 is less than 5.00.

Turning to `CC(C)n1nc(COc2ccccc2CC(=O)O)c2cc(-c3cccc4c(N)noc34)ccc21` [Compound 30c, 2-(2-((5-(3-aminobenzo[d]isoxazol-7-yl)-1-isopropyl-1H-indazol-3-yl)methoxy)phenyl)acetic acid], the pIC50 was less than 5.00.

As for `CC(C)n1nc(COc2ccccc2CC(=O)O)c2cc(-c3cccc4c(N)n[nH]c34)ccc21` [Compound 31c, 2-(2-((3′-amino-1-isopropyl-1H, 1′H-[5,7′-biindazol]-3-yl)methoxy)phenyl)acetic acid], the pIC50 is 5.00 to 6.00.

Consider `CC(C)n1nc(COc2ccccc2CC(=O)O)c2cc(-c3ccc4[nH]nc(N)c4c3)ccc21` [Compound 32c, 2-(2-((3′-amino-1-isopropyl-1H, 1′H-[5,5′-biindazol]-3-yl)methoxy)phenyl)acetic acid], for which the pIC50 is less than 5.00.

Regarding `CC(C)n1nc(COc2ccccc2CC(=O)O)c2cc(-c3ccn4ncc(N)c4n3)ccc21` [Compound 33c, 2-(2-((5-(3-aminopyrazolo[1,5-a]pyrimidin-5-yl)-1-isopropyl-1H-indazol-3-yl)methoxy)phenyl)acetic acid], the pIC50 was less than 5.00.

Turning to `CC(C)n1nc(COc2ccccc2CC(=O)O)c2cc(-c3ccc4cc(N)ncc4c3)ccc21` [Compound 34c, 2-(2-((5-(3-aminoisoquinolin-7-yl)-1-isopropyl-1H-indazol-3-yl)methoxy)phenyl)acetic acid], the pIC50 is less than 5.00.

Consider `CC(C)n1nc(COc2ccccc2CC(=O)O)c2cc(-c3ccc4nc(N)ccc4c3)ccc21` [Compound 35c, 2-(2-((5-(2-aminoquinolin-6-yl)-1-isopropyl-1H-indazol-3-yl)methoxy)phenyl)acetic acid], for which the pIC50 was less than 5.00.

In the case of `CC(C)n1nc(COc2ccccc2CC(=O)O)c2cc(-c3ccc4cc(N)ccc4c3)ccc21` [Compound 36c, 2-(2-((5-(6-aminonaphthalen-2-yl)-1-isopropyl-1H-indazol-3-yl)methoxy)phenyl)acetic acid], the pIC50 was less than 5.00.

Turning to `Nc1nccc2ccc(-c3ccc4c(c3)c(COc3ccccc3CC(=O)O)nn4C3CCC3)cc12` [Compound 37c, 2-(2-((5-(1-aminoisoquinolin-7-yl)-1-cyclobutyl-1H-indazol-3-yl)methoxy)phenyl)acetic acid], the negative logarithm of the IC50 (pIC50) is more than 6.00.

As to `CC(C)n1nc(COc2ccccc2CC(=O)O)c2cc(-c3cc4cc(N)ccc4cn3)ccc21` [Compound 38c, 2-(2-((5-(6-aminoisoquinolin-3-yl)-1-isopropyl-1H-indazol-3-yl)methoxy)phenyl)acetic acid], the pIC50 is less than 5.00.

As to `CC(C)n1nc(COc2ccccc2CC(=O)O)c2cc(-c3ccc4ncnc(N)c4c3)ccc21` [Compound 39c, 2-(2-((5-(4-aminoquinazolin-6-yl)-1-isopropyl-1H-indazol-3-yl)methoxy)phenyl)acetic acid], the pIC50 is less than 5.00.

Turning to `CC(C)n1nc(COc2ccccc2CC(=O)O)c2cc(-c3cccc4c(N)nccc34)ccc21` [Compound 40b, 2-(2-((5-(1-aminoisoquinolin-5-yl)-1-isopropyl-1H-indazol-3-yl)methoxy)phenyl)acetic acid], the pIC50 was more than 6.00.

`CC(C)n1nc(COc2ccccc2CC(=O)O)c2cc(-c3ccc4c(N)nc(N)nc4c3)ccc21` [Compound 41c, 2-(2-((5-(2,4-diaminoquinazolin-7-yl)-1-isopropyl-1H-indazol-3-yl)methoxy)phenyl)acetic acid]: the pIC50 is less than 5.00.

Turning to `Nc1nccc2ccc(-c3ccc4c(c3)c(COc3ccccc3CC(=O)O)nn4C3CCCC3)cc12` [Compound 42d, 2-(2-((5-(1-aminoisoquinolin-7-yl)-1-cyclopentyl-1H-indazol-3-yl)methoxy)phenyl)acetic acid], the negative-log IC50 (pIC50) is more than 6.00.

As to `CC(C)n1nc(COc2ccccc2CC(=O)O)c2cc(-c3ccc4c(N)cccc4c3)ccc21` [Compound 43d, 2-(2-((5-(5-aminonaphthalen-2-yl)-1-isopropyl-1H-indazol-3-yl)methoxy)phenyl)acetic acid], the pIC50 was less than 5.00.

Turning to `CC(C)n1nc(COc2ccccc2CC(=O)O)c2cc(-c3ccc4ccnc(O)c4c3)ccc21` [Compound 44d, 2-(2-((5-(1-hydroxyisoquinolin-7-yl)-1-isopropyl-1H-indazol-3-yl)methoxy)phenyl)acetic acid], the pIC50 was less than 5.00.

For the compound `CC(C)n1nc(COc2ccccc2CC(=O)O)c2cc(-c3cccc(-c4c[nH]nc4N)c3)ccc21` [Compound 45c, 2-(2-((5-(3-(3-amino-1H-pyrazol-4-yl)phenyl)-1-isopropyl-1H-indazol-3-yl)methoxy)phenyl)acetic acid], the negative logarithm of the IC50 (pIC50) is less than 5.00.

As for `CC(C)n1nc(COc2ccccc2CC(=O)O)c2cc(-c3ccc4cc(Cl)nc(N)c4c3)ccc21` [Compound 46d, 2-(2-((5-(1-amino-3-chloroisoquinolin-7-yl)-1-isopropyl-1H-indazol-3-yl)methoxy)phenyl)acetic acid], the pIC50 was less than 5.00.

`CC(C)n1nc(COc2ccccc2CC(=O)O)c2cc(-c3cccc(-c4nn[nH]n4)c3)ccc21` [Compound 47c, 2-(2-((5-(3-(2H-tetrazol-5-yl)phenyl)-1-isopropyl-1H-indazol-3-yl)methoxy)phenyl)acetic acid]: the negative logarithm of the IC50 (pIC50) was less than 5.00.

Consider `Nc1nccc2ccc(-c3ccc4c(c3)c(COc3ccccc3CC(=O)O)nn4C3CCCCC3)cc12` [Compound 48d, 2-(2-((5-(1-aminoisoquinolin-7-yl)-1-cyclohexyl-1H-indazol-3-yl)methoxy)phenyl)acetic acid], for which the pIC50 was more than 6.00.

As for `CC(C)n1nc(COc2ccccc2CC(=O)O)c2cc(-c3ccc4c(N)noc4c3)ccc21` [Compound 49a, 2-(2-((5-(3-aminobenzo[d]isoxazol-6-yl)-1-isopropyl-1H-indazol-3-yl)methoxy)phenyl)acetic acid], the pIC50 is less than 5.00.

In the case of `CC(C)n1nc(COc2ccccc2CC(=O)O)c2cc(-c3ccc4ccc(N)nc4c3)ccc21` [Compound 50c, 2-(2-((5-(2-aminoquinolin-7-yl)-1-isopropyl-1H-indazol-3-yl)methoxy)phenyl)acetic acid], the pIC50 was less than 5.00.

These data come from patent US20240239752A1, “BICYCLIC HETEROAROMATIC INHIBITORS OF KLK5” (BioCryst Pharmaceuticals, Inc., priority 2021, published 2024).
